The assay has as its target T1, HIV-1 PR (HIV-1 protease) (HIV-1 M:B_HXB2R, UniProt P04585).
T1 construct: gene gag-pol; mature protease cut from Gag-Pol polyprotein (Pr160Gag-Pol); SensoLyte 520 HIV-1 assay kit; homodimer
It is filed as biochemical. To be noted: n = 3; read-out: HIV-1 PR / IC50 ± SD (mg/mL) (converted).
For `O=C(O)[C@H]1O[C@@H](Oc2cc3oc(-c4ccccc4)cc(=O)c3c(O)c2O)[C@H](O)[C@@H](O)[C@@H]1O` [Baicalin], the IC50 is 1860 µM.

`O=C1C[C@@H](c2ccc(O)cc2)Oc2cc(O)cc(O)c21` [Narigenin]: the IC50 is 661 µM. For the compound `O=c1cc(-c2ccc(O)c(O)c2)oc2cc(O)cc(O)c12` [Luteolin], the IC50 was 136 µM. `COc1c(O)cc(O)c2c(=O)cc(-c3ccccc3)oc12` [Wogonin]: the IC50 is 1410 µM.

As for `O=c1cc(-c2ccc(O)cc2)oc2cc(O)cc(O)c12` [Apigenin], the IC50 was 481 µM.

With `O=c1cc(-c2ccc(O)cc2)oc2cc(O)c(O)c(O)c12` [Scutellarein], the IC50 is 238 µM.
